Source: patent publication US12565640B2, “Method for inducing ureteric bud-like tissue” (Kyoto University, priority 2017, dated 2026)
Entries after “also recorded” stand apart in the source; their conditions may differ.

Experiments:
[1] = tested on: anterior primitive streak (APS) cells; experiment: Induction of anterior intermediate mesoderm cells from hiPSCs via anterior primitive streak (immunostaining, flow cytometry); type: cell-based, human; conditions: for effect on induction efficiency / differentiation of OSR1^+GATA3^+ cells: added to the anterior intermediate mesoderm induction stage, 10 ng/ml BMP4 or 0.1 μM LDN193189
Method: Undifferentiated hiPSCs/ESCs were plated at a density of 2.5×10^4 cells/cm^2 onto tissue culture plates in maintenance medium with 10 μM Y-27632 and iMatrix-511 silk. After 24 h, the cells were washed with PBS and treated with Essential 6 medium (Thermo Fisher Scientific) containing 100 ng/ml Activin A (R&D Systems) and 3 μM CHIR99021 (Stem RD) with or without 10 ng/ml bone morphogenetic protein (BMP)4 (PeproTech) for 24 h.
To induce anterior intermediate mesoderm, the anterior primitive streak cells were treated with 200 ng/ml fibroblast growth factor (FGF) 8 (Peprotech), 0.1 μM 4-[(E)-2-(5,6,7,8-Tetrahydro-5,5,8,8-tetramethyl-2-naphthalenyl)-1-propenyl]-benzoic acid (TTNPB; Santa Cruz Biotechnology), 1 μM A83-01 and 0.1 μM LDN193189 for 2 days. Then, the cells were replated onto Matrigel-coated plates at a density of 1×10^5 cells/cm^2 in the anterior intermediate mesoderm induction medium with 10 μM Y-27632 and incubated for an additional 24 h.
(§1) The cells were fixed with 4% PFA/PBS for 20 min at 4° C. After washing with PBS, the cells were blocked with 1% normal donkey serum (Millipore) and 3% bovine serum albumin (BSA; Nacalai Tesque)/PBST (PBS/0.25% Triton X-100) for 1 h at room temperature. Primary antibodies were diluted in blocking solution and incubated with samples overnight at 4° C. Secondary antibodies were incubated for 1 h at room temperature.
After dissociation with Accutase, the cells were fixed, permeabilized and blocked with a BD Cytofix/Cytoperm Kit (Becton Dickinson). Then the cells were incubated with primary antibodies diluted at 1:100 in blocking solution for 30 min at room temperature. After washing twice, the cells were incubated with secondary antibodies diluted at 1:500 in blocking solution for 30 min at room temperature. The cells were then analyzed using FACS AriaII cell sorter (Becton Dickinson).

[2] = tested on: anterior intermediate mesoderm cells; experiment: Induction of Wolffian duct cells from anterior intermediate mesoderm cells (immunostaining, cell counts); type: cell-based, human; conditions: for differentiation of Wolffian duct cells (OSR1^−GATA3^+PAX2^+) from anterior intermediate mesoderm cells / Total cell numbers after treatment: 3D45 cells; for Total cell numbers after treatment: FIG. 2E, mean±s.d., n=3, before treatment 1.44±0.29; for number of GATA3^+ (Wolffian duct) cells: supplementation during Wolffian duct induction
Method: Anterior intermediate mesoderm cells were treated with Essential 6 medium containing 1 μM CHIR99021, 0.1 μM LDN193189, 200 ng/ml FGF8 and 100 ng/ml glial cell line-derived neurotrophic factor (GDNF; R&D Systems) with or without 0.1 μM TTNPB for 2 days to enhance Wolffian duct leading edge cell induction. Then, the cells were dissociated into single cells by gentle pipetting after treatment with Accutase (Innovative Cell Technologies). The cells were seeded onto low-attachment 96-well plates (Sumitomo Bakelite) at a density of 1×10^4 cells/well in Essential 6 medium with 100 ng/ml GDNF, 200 ng/ml FGF1 (R&D Systems), 0.1 μM TTNPB, 3 μM CHIR99021 and 10 μM Thiazovivin (Santa Cruz Biotechnology) and incubated for 2 days to induce mature Wolffian duct aggregates.
as §1

[3] = added to anterior intermediate mesoderm cells, immunostaining

c1ccc2c(-c3cnn4cc(-c5ccc(N6CCNCC6)cc5)cnc34)ccnc2c1 [LDN193189, 4-(6-(4-(piperazin-1-yl)phenyl)pyrazolo[1,5-a]pyrimidin-3-yl)quinoline]
effect on induction efficiency / differentiation of OSR1^+GATA3^+ cells [1]: did not change the induction efficiency
differentiation of Wolffian duct cells (OSR1^−GATA3^+PAX2^+) from anterior intermediate mesoderm cells ([2]; immunostaining): enhanced the Wolffian duct induction

O=C(Nc1cccc2cccnc12)c1ccc(N2C(=O)[C@@H]3[C@H](C2=O)[C@@H]2C=C[C@H]3C2)cc1 [IWR-1]
GATA3 and PAX2 expressions [2, 3]: diminished GATA3 and PAX2 expressions
OSR1 expression [2, 3]: prolonged OSR1 expression
differentiation of Wolffian duct cells (OSR1^−GATA3^+PAX2^+) from anterior intermediate mesoderm cells ([2]; immunostaining): inhibited the Wolffian duct induction

C/C(=C\c1ccc(C(=O)O)cc1)c1ccc2c(c1)C(C)(C)CCC2(C)C [TTNPB, 4-[(E)-2-(5,6,7,8-Tetrahydro-5,5,8,8-tetramethyl-2-naphthalenyl)-1-propenyl]-benzoic acid]
differentiation of Wolffian duct cells (OSR1^−GATA3^+PAX2^+) from anterior intermediate mesoderm cells ([2]; immunostaining): early Wolffian duct cells were stably generated

Cc1ccc(C2=CCC(C)(C)c3ccc(C#Cc4ccc(C(=O)O)cc4)cc32)cc1 [AGN193109]
RET expression (Wolffian duct cell marker) [2, 3]: diminished RET expression; also recorded: decreased the expression of RET

Cc1c[nH]c(-c2cnc(NCCNc3ccc(C#N)cn3)nc2-c2ccc(Cl)cc2Cl)n1 [CHIR99021, 6-[2-[4-(2,4-Dichlorophenyl)-5-(4-methyl-1H-imidazol-2-yl)pyrimidin-2-ylamino]ethylamino]pyridine-3-carbonitrile]
differentiation of Wolffian duct cells (OSR1^−GATA3^+PAX2^+) from anterior intermediate mesoderm cells ([2]; immunostaining): enhanced OSR1^−GATA3^+PAX2^− cell differentiation; also recorded: enhanced the differentiation

Cc1cccc(-c2nn(C(=S)Nc3ccccc3)cc2-c2ccnc3ccccc23)n1 [A83-01, 3-(6-Methyl-2-pyridinyl)-N-phenyl-4-(4-quinolinyl)-1H-pyrazole-1-carbothioamide]
differentiation of SOX17^+ definitive endoderm cells ([1]; 1 μM A83-01 added to FGF8 and TTNPB, immunostaining): diminished; also recorded: decreases the differentiation into definitive endoderm cells
induction of anterior intermediate mesoderm-like cells (OSR1, GATA3 immunostaining) ([1]; treatment of APS cells): without inhibiting the induction of anterior intermediate mesoderm-like cells

B1: GDNF: glial cell line-derived neurotrophic factor (R&D Systems) (protein, UniProt P39905 78-211, looked up)
Glial cell line-derived …: SPDKQMAVLPRRERNRQAAAANPENSRGKGRRGQRGKNRGCVLTAIHLNVTDLGLGYETKEELIFRYCSGSCDAAETTYDKILKNLSRNRRLVSDKVGQACCRPIAFDDDLSFLDDNLVYHILRKHSAKRCGCI
Total cell numbers after treatment [2]: 2.37±0.56 ×10^5/cm^2
number of GATA3^+ (Wolffian duct) cells [2]: increased the number of GATA3^+ Wolffian duct cells

B2: BMP4: bone morphogenetic protein (BMP)4 (PeproTech) (protein, UniProt P12644 293-408, looked up)
Bone morphogenetic protein 4: SPKHHSQRARKKNKNCRRHSLYVDFSDVGWNDWIVAPPGYQAFYCHGDCPFPLADHLNSTNHAIVQTLVNSVNSSIPKACCVPTELSAISMLYLDEYDKVVLKNYQEMVVEGCGCR
induction rates of GATA3^+ cells ([1]; FIG. 1H, 10 ng/ml BMP4 at APS induction stage, 0.1 μM LDN193189 at anterior IM induction stage, mean±s.d., n=4): 69.1±13.9%
effect on induction efficiency / differentiation of OSR1^+GATA3^+ cells [1]: inhibited the differentiation
OSR1^+GATA3^+ cell induction rate ([1]; added to the anterior primitive streak induction stage): around 70 % of the total cells obtained
effect on OSR1^+GATA3^+ cell induction ([1]; added to the anterior primitive streak induction stage, 10 ng/ml BMP4, immunostaining): facilitated the OSR1^+GATA3^+ cell induction
differentiation of Wolffian duct cells (OSR1^−GATA3^+PAX2^+) from anterior intermediate mesoderm cells ([2]; immunostaining): suppressed Wolffian duct differentiation; also recorded: inhibited the differentiation of Wolffian duct cells

B3: FGF8: fibroblast growth factor (FGF) 8 (Peprotech) (protein, UniProt P55075 23-233, looked up)
Fibroblast growth factor 8: QEGPGRGPALGRELASLFRAGREPQGVSQQHVREQSLVTDQLSRRLIRTYQLYSRTSGKHVQVLANKRINAMAEDGDPFAKLIVETDTFGSRVRVRGAETGLYICMNKKGKLIAKSNGKGKDCVFTEIVLENNYTALQNAKYEGWYMAFTRKGRPRKGSKTRQHQREVHFMKRLPRGHHTTEQSLRFEFLNYPPFTRSLRGSQRTWAPEPR
Total cell numbers after treatment [2]: 4.69±0.65 ×10^5/cm^2
differentiation of Wolffian duct cells (OSR1^−GATA3^+PAX2^+) from anterior intermediate mesoderm cells ([2]; immunostaining): enhanced the Wolffian duct induction
number of GATA3^+ (Wolffian duct) cells [2]: increased the number of GATA3^+ cells
